Data: US20090258917A1 (priority 2005, published 2009)
Where two headings read alike, the source gives them in different places.

Biological target: T1, mPGES-1 (Homo sapiens, UniProt O14684)
T1 construct: made in house; host or cells: E. coli
T1 sequence (O14684 1-152): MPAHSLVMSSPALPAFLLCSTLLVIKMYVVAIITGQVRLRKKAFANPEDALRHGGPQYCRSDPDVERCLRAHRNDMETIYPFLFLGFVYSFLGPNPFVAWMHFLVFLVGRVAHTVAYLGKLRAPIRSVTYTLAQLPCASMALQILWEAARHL
Assay: mPGES-1 assay: conversion of PGH2 to PGE2, PGE2 analysed by HPLC
Format: biochemical
Procedure: In the assay mPGES-1 catalyses the reaction where the substrate PGH2 is converted to PGE2. mPGES-1 is expressed in E. coli and the membrane fraction is dissolved in 20 mM NaPi-buffer pH 8.0 and stored at −80° C. […] The stop solution consists of H2O/MeCN (7/3), containing FeCl2 (25 mM) and HCl (0.15 M). The assay is performed at room temperature in 96-well plates.
The following is added chronologically to each well: • 1. 100 μL mPGES-1 in KPi-buffer with glutathione. Total protein concentration: 0.02 mg/mL. • 2. 1 μL inhibitor in DMSO. Incubation of the plate at room temperature for 25 minutes. • 3. 4 μL of a 0.25 mM PGH2 solution. Incubation of the plate at room temperature for 60 seconds. • 4. 100 μL stop solution. • 180 μL per sample is analyzed with HPLC.

[1] = biological test described above, 10 μM or below, read-out: concentration giving 50% inhibition of mPGES-1
[2] = mPGES-1 expressed in E. coli, 25 min preincubation with inhibitor, 60 s with PGH2, room temperature, read-out: IC50

Structure (SMILES) | IC50 [1] | IC50 [2]
CC(C)c1ccc2oc(-c3cccc(NC(=O)c4cc(Cl)ccc4Cl)c3)nc2c1 | ≤ 10 µM | –
Cc1cc(C)c2oc(-c3ccc(C)c(NC(=O)c4ccc(Cl)cc4Cl)c3)nc2c1 [2,4-dichloro-N-[2-methyl-5-(5,7-dimethylbenzoxazol-2-yl)phenyl]benzamide] | ≤ 10 µM | –
Cc1cc2nc(-c3cccc(NC(=O)c4cc(Cl)ccc4Cl)c3)oc2cc1C [2,5-dichloro-N-[3-(5,6-dimethylbemoxazol-2-yl)phenyl]benzamide] | ≤ 10 µM | –
O=C(Nc1cccc(-c2nc3cc(Cl)cc(Cl)c3o2)c1)c1ccccc1Br [2-bromo-N-[3-(5,7-dichlorobenzoxazol-2-yl)phenyl]benzamide] | ≤ 10 µM | –
Cc1ccc2oc(-c3cc(NC(=O)c4ccccc4F)ccc3Cl)nc2c1 [Example 23, N-[4-Chloro-3-(5-methylbenzoxazol-2-yl)phenyl]-2-fluorobenzamide] | – | 2.6 µM
O=C(Nc1ccc(Cl)c(-c2nc3cc(Cl)ccc3o2)c1)c1ccccc1[N+](=O)[O-] [N-[4-chloro-3-(5-chlorobenzoxazol-2-yl)phenyl]-2-nitrobenzamide] | ≤ 10 µM | –
COc1ccc(C(=O)Nc2ccc(Cl)c(-c3nc4cc(C(C)C)ccc4o3)c2)cc1[N+](=O)[O-] [N-[4-chloro-3-(5-isopropylbenzoxazol-2-yl)phenyl]-4-methoxy-3-nitrobenzamide] | ≤ 10 µM | –

More lines, now with the values ahead:

IC50 [1] | IC50 [2] | Structure (SMILES)
≤ 10 µM | – | Cc1ccc2oc(-c3cccc(NC(=O)c4ccccc4Cl)c3)nc2c1 [2-chloro-N-[3-(5-methylbenzoxazol-2-yl)phenyl]benzamide]
≤ 10 µM | – | O=C(Nc1ccc(Cl)c(-c2nc3cc(Cl)ccc3o2)c1)c1ccc([N+](=O)[O-])cc1Cl [2-chloro-N-[4-chloro-3-(5-chlorobenzoxazol-2-yl)phenyl]-4-nitrobenzamide]
≤ 10 µM | – | O=C(Nc1ccc(Cl)c(-c2nc3cc(Cl)ccc3o2)c1)c1ccccc1Cl [2-chloro-N-[4-chloro-3-(5-chlorobenzoxazol-2-yl)phenyl]benzamide]
≤ 10 µM | – | CC(C)c1ccc2oc(-c3cc(NC(=O)c4ccccc4Cl)ccc3Cl)nc2c1 [2-chloro-N-[4-chloro-3-(5-isopropylbenzoxazol-2yl)phenyl]benzamide]
– | 1.9 µM | Cc1ccc2oc(-c3cccc(NC(=O)c4ccccc4[N+](=O)[O-])c3)nc2c1 [Example 3, N-[3-(5-Methylbenzoxazol-2-yl)phenyl]-2-nitrobenzamide]
– | 2.3 µM | Cc1ccc2oc(-c3cc(NC(=O)c4ccccc4OC(F)(F)F)ccc3Cl)nc2c1 [Example 20, N-[4-Chloro-3-(5-methylbenzoxazol-2-yl)phenyl]-2-trifluoromethoxybenzamide]
≤ 10 µM | – | CC(C)c1ccc2oc(-c3cc(NC(=O)c4ccccc4[N+](=O)[O-])ccc3Cl)nc2c1 [N-[4-chloro-3-(5-isopropylbenzoxazol-2-yl)phenyl]-2-nitrobenzamide]
≤ 10 µM | – | CC(C)c1ccc2oc(-c3cc(NC(=O)c4cccnc4)ccc3Cl)nc2c1 [N-[4-chloro-3-(5-isopropylbenzoxazol-2-yl)phenyl]nicotinamide]
